# Laboratory results from PubChem BioAssay AID651650 (Sanford-Burnham Center for Chemical Genomics, 2012).
# Activity calls are given as the source filed them.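 The calls were made as follows: active = mean IC50 below 20 µM in each of the two panels, so potent in both; inactive = the rest.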
# Target: Neuropilin-1 (Homo sapiens) (UniProt O14786)
# Assay: blockers of CendR peptide binding to NRP-1 – biochemical, FP and AlphaScreen panel, dose response (AID 651650)
# Conditions: NRP-1 b1b2 / RPARPAR peptide binding, FP or AlphaScreen
# [1] = AlphaScreen, run 1, individual panel run IC50
# [2] = FP, run 1, individual panel run IC50
# [3] = FP, run 2, individual panel run IC50
# Sequence of Neuropilin-1 (Homo sapiens) (O14786 whole entry, looked up): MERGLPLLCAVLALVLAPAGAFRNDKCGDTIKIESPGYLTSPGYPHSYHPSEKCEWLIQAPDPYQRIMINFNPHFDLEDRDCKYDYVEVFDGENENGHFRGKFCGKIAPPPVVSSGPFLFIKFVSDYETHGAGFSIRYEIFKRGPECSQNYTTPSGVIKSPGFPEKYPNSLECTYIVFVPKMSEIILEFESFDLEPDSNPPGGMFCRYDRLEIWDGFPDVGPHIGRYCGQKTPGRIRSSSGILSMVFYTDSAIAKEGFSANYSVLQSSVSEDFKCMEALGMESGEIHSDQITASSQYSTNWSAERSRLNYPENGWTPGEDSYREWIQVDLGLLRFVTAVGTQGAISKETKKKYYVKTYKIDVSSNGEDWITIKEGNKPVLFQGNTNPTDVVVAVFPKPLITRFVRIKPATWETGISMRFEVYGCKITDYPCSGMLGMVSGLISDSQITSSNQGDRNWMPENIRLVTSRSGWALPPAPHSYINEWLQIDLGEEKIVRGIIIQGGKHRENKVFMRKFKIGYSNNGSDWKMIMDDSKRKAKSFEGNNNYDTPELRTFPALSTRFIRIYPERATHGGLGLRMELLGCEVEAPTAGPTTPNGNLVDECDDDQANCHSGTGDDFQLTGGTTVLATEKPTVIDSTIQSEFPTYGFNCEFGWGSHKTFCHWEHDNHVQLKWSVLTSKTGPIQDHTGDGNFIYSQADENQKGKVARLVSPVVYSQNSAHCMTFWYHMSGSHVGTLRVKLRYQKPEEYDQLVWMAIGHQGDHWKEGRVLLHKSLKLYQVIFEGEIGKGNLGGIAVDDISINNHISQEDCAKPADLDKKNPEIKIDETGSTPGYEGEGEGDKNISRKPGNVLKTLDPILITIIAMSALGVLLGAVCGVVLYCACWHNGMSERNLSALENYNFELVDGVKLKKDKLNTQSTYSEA
SMILES,"IC50 (AlphaScreen, mean of runs)",IC50 [1],"IC50 (FP, mean of runs)",IC50 [2],IC50 [3]
C=C1CCN([C@@H](CC(C)C)C(=O)NCCC(C)C)S(=O)(=O)c2ccccc21,> 100 µM (inactive),> 100 µM,> 95 µM (inactive),> 95 µM,> 95 µM
CCCc1c(C)nc(N2CCN(c3ccccc3OC)CC2)[nH]c1=O,> 100 µM (inactive),> 100 µM,> 95 µM (inactive),> 95 µM,> 95 µM
Cc1ccccc1S(=O)(=O)Nc1nc2ccccc2nc1NCCO,> 100 µM (inactive),> 100 µM,> 95 µM (inactive),> 95 µM,> 95 µM
N#Cc1ccc(COC(=O)c2cnc(Cl)c(Cl)c2)cc1,> 100 µM (inactive),> 100 µM,> 95 µM (inactive),> 95 µM,> 95 µM
Cc1ccc(COn2c(-c3ccc(Cl)cc3Cl)nc3ncccc32)cc1,> 100 µM (inactive),> 100 µM,> 95 µM (inactive),> 95 µM,> 95 µM
O=C(c1ccc(-c2cccc(C(F)(F)F)c2)o1)N1CCCC(C(F)(F)F)C1 (stereo not given),> 100 µM (inactive),> 100 µM,> 95 µM (inactive),> 95 µM,> 95 µM
CCO[C@@H]1OC(C(=O)NCc2ccccc2)=C[C@H](c2ccc(Br)cc2)[C@H]1CCCO,inactive,22.1 µM,> 95 µM (inactive),> 95 µM,> 95 µM
CCOC(=O)C1CCN(Cc2ccc3ccccc3c2)CC1,> 100 µM (inactive),> 100 µM,> 95 µM (inactive),> 95 µM,> 95 µM
O=C(CCn1c(=O)c2cccn2c2cccnc21)NCc1cccc(Cl)c1,> 100 µM (inactive),> 100 µM,> 95 µM (inactive),> 95 µM,> 95 µM
CCOc1ccc(/C=C2/Sc3ccc(C(=O)NCC4CCCO4)cc3N(C)C2=O)cc1OC (stereo not given),> 100 µM (inactive),> 100 µM,> 95 µM (inactive),> 95 µM,> 95 µM
C=C1CCN(C(C(=O)OC)C(C)C)S(=O)(=O)c2ccc(F)cc21 (stereo not given),> 100 µM (inactive),> 100 µM,> 95 µM (inactive),> 95 µM,> 95 µM
Nc1ccc(C#Cc2c(-c3ccsc3)oc3ccc(N4CCOCC4)cc23)cc1,> 100 µM (inactive),> 100 µM,> 95 µM (inactive),> 95 µM,> 95 µM
C=C1C[C@@]23CCC4[C@@](C)(CCC[C@@]4(C)C(=O)O)C2CC[C@]1(O)C3 (stereo not given in full),> 100 µM (inactive),> 100 µM,> 95 µM (inactive),> 95 µM,> 95 µM
C/C(=N\N=c1/sc2ccccc2n1C)c1ccccn1,> 100 µM (inactive),> 100 µM,> 95 µM (inactive),> 95 µM,> 95 µM
c1ccc2c(CNc3ccc(CNc4ncn[nH]4)cc3)cccc2c1,> 100 µM (inactive),> 100 µM,> 95 µM (inactive),> 95 µM,> 95 µM
COc1ccc(C(=O)N2CCC(C)(C(=O)NS(=O)(=O)C3CC3)C2)cc1F (stereo not given),> 100 µM (inactive),> 100 µM,> 95 µM (inactive),> 95 µM,> 95 µM
CN(C)CCn1c(=O)n(-c2ccc(F)cc2)c(=O)c2c3c(sc21)CCCCC3,inactive,44.2 µM,> 95 µM (inactive),> 95 µM,> 95 µM
CC1CCC(NC(=O)CSc2nncn2C)CC1 (stereo not given),> 100 µM (inactive),> 100 µM,> 95 µM (inactive),> 95 µM,> 95 µM
CCOC(=O)[C@@H]1[C@H]2COc3ccccc3[C@@H]2N2C(=O)N(c3ccc(Cl)cc3)C(=O)[C@]12C,7.51 µM,7.51 µM,> 95 µM (inactive),> 95 µM,> 95 µM
CCCN(C(=O)Cn1c(C(F)(F)F)nc2ccccc21)C1CCS(=O)(=O)C1 (stereo not given),11.2 µM,11.2 µM,> 95 µM (inactive),> 95 µM,> 95 µM
OCCNc1ncnc2ccc(Br)cc12,inactive,45.2 µM,> 95 µM (inactive),> 95 µM,> 95 µM
